The values that follow are results of earlier work, collected in patent US8039023B1, “Composition for relief of menstrual cramps and muscle cramps” (priority 2009, dated 2011).

The test system of the data set is pain and muscle cramping symptoms. The note with it: prior art, various brands, typical.
Take `CC(=O)Nc1ccc(O)cc1` [acetaminophen]: the “time after ingestion to reduced discomfort from pain and muscle cramping symptoms” value is listed as “twenty to forty”.
Take `CC(=O)Oc1ccccc1C(=O)O` [aspirin]: the “time after ingestion to reduced discomfort from pain and muscle cramping symptoms” value was “twenty to forty”.
As to `CC(C)Cc1ccc(C(C)C(=O)O)cc1` (stereo not drawn) [ibuprofen], the “time after ingestion to reduced discomfort from pain and muscle cramping symptoms” value is “twenty to forty”.
